The values below come from ChEMBL document CHEMBL1137199, “Estrogen receptor ligands. Part 8: Dihydrobenzoxathiin SERAMs with heteroatom-substituted side chains” (Bioorg Med Chem Lett, 2004).

What is called IC50 is the midpoint of a concentration-inhibition curve.

One assay has as its target T1, Estrogen receptor (Homo sapiens, UniProt P03372).
T1 sequence (P03372 whole entry): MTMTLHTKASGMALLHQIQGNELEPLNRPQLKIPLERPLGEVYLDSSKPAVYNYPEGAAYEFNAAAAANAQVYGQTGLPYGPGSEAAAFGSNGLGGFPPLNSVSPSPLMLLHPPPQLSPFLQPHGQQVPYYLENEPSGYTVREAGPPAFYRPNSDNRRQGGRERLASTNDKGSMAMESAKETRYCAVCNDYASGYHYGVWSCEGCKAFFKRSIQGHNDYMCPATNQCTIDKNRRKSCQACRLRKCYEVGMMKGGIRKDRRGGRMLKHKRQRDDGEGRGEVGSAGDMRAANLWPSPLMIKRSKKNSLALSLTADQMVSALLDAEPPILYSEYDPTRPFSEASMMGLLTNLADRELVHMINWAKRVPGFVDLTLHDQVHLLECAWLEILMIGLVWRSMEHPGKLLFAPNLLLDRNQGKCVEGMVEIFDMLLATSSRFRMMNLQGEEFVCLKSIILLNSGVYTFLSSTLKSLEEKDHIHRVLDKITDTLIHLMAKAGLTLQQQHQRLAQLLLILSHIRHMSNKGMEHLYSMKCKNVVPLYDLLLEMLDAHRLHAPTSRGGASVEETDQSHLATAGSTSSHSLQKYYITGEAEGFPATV

The target in the next assay is Estrogen receptor beta (Homo sapiens, UniProt Q92731).
A further assay concerns MCF7. In words: cells. The note with it: Homo sapiens.

The structures appear in SMILES notation.

Estrogen receptor beta, sequence (Q92731 whole entry): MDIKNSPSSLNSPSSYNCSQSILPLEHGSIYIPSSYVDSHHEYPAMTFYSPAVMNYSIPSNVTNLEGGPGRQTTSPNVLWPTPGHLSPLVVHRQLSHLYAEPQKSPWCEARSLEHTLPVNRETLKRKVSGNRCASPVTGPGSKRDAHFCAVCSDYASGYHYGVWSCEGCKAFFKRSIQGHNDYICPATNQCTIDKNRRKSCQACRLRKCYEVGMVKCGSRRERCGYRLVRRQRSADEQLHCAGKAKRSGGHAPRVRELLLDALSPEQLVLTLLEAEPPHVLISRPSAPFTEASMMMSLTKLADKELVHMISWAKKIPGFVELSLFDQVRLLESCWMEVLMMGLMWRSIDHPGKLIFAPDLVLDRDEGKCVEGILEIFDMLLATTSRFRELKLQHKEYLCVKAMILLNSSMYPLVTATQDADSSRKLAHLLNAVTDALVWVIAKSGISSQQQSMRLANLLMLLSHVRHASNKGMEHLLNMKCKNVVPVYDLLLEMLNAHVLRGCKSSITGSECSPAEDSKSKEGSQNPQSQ

In the case of `Oc1ccc([C@H]2Sc3cc(O)ccc3O[C@H]2c2ccc(OCCN3CCC(F)(F)CC3)cc2)cc1`, the IC50 was 16 nM at Estrogen receptor, 275 nM on Estrogen receptor beta and 42 nM with MCF7.

With `Oc1ccc([C@H]2Sc3cc(O)ccc3O[C@H]2c2ccc(OCCN3CCC(F)CC3)cc2)cc1`, the IC50 on Estrogen receptor is 2.5 nM; on Estrogen receptor beta, 116 nM.

On to `OC[C@H]1CCCN1CCOc1ccc([C@@H]2Oc3ccc(O)cc3S[C@@H]2c2ccc(O)cc2)cc1`, for which the IC50 on Estrogen receptor stood at 2 nM; at Estrogen receptor beta, 134 nM; with MCF7, 3.2 nM.

In the case of `Oc1ccc([C@H]2Sc3cc(O)ccc3O[C@H]2c2ccc(OCCN3CC[C@@H](O)C3)cc2)cc1`, the IC50 against Estrogen receptor is 1.7 nM; at Estrogen receptor beta it was 81 nM; in the assay with MCF7 it was 0.6 nM.

On to `Oc1ccc([C@H]2Sc3cc(O)ccc3O[C@H]2c2ccc(OCCN3CCC4(CC3)OCCO4)cc2)cc1`, for which the IC50 against Estrogen receptor worked out at 2 nM; against Estrogen receptor beta, 267 nM; in the assay on MCF7, 42.3 nM.

With `NC(=O)C1CCN(CCOc2ccc([C@@H]3Oc4ccc(O)cc4S[C@@H]3c3ccc(O)cc3)cc2)CC1`, the IC50 on Estrogen receptor was 2.2 nM; against Estrogen receptor beta, 366 nM; in the assay on MCF7, 21 nM.

Take `Oc1ccc([C@H]2Sc3cc(O)ccc3O[C@H]2c2ccc(OCCN3CCSCC3)cc2)cc1`: the IC50 against Estrogen receptor worked out at 1.5 nM; against Estrogen receptor beta, 72 nM; in the assay with MCF7 it was 15.6 nM.

In the case of `Oc1ccc([C@H]2Sc3cc(O)ccc3O[C@H]2c2ccc(OCCN3CCC(O)CC3)cc2)cc1`, the results for the IC50 on Estrogen receptor, on Estrogen receptor beta and in the assay with MCF7 were 1.8 nM, 331 nM and 7.5 nM, respectively.

Turning to `OC[C@@H]1CCCN1CCOc1ccc([C@@H]2Oc3ccc(O)cc3S[C@@H]2c2ccc(O)cc2)cc1`, the IC50 on Estrogen receptor was found to be 3.9 nM; against Estrogen receptor beta, 81 nM; in the assay on MCF7, 1.9 nM.

As to `Oc1ccc([C@H]2Sc3cc(O)ccc3O[C@H]2c2ccc(OCCN3CC[C@@H](F)C3)cc2)cc1`, the IC50 is 0.5 nM against Estrogen receptor, 59 nM against Estrogen receptor beta and 3.8 nM in the assay with MCF7.

In the case of `OCCC1CCN(CCOc2ccc([C@@H]3Oc4ccc(O)cc4S[C@@H]3c3ccc(O)cc3)cc2)CC1`, the figures for the IC50 against Estrogen receptor, at Estrogen receptor beta and in the assay on MCF7 were 7.3 nM, 1110 nM and 42.5 nM, respectively.

`OCC1CCN(CCOc2ccc([C@@H]3Oc4ccc(O)cc4S[C@@H]3c3ccc(O)cc3)cc2)CC1`: the IC50 came out at 2.2 nM against Estrogen receptor, 436 nM against Estrogen receptor beta and 11.3 nM with MCF7.

As to `O=S1(=O)CCN(CCOc2ccc([C@@H]3Oc4ccc(O)cc4S[C@@H]3c3ccc(O)cc3)cc2)CC1`, the IC50 at Estrogen receptor is 2 nM; against Estrogen receptor beta, 247 nM; with MCF7, 26.3 nM.
